Measured values published in US20230000876A1, “TREATING CANCERS WITH A CYCLIN-DEPENDENT KINASE INHIBITOR” (Nuvation Bio Inc., priority 2021, published 2023).

Experiments:
[1] = system: ACHN-luc2; experiment: CellTiter-Glo anti-proliferation assay, ACHN-luc2; type: cell-based
Protocol: (§1) The anti-proliferation effect of 2 compounds (the compound of formula (I) and temozolomide) in 7 CNS metastasis cell lines (MOLT-4-luc, Nalm-6-luc, NCI-H460-luc, ACHN-luc2, PC-9-luc, H1975-luc, and KM12-luc) was evaluated.
(§2) The plating of cells and compound treatments are shown below in the plate map (Table 12). One plate was needed for the test of 2 compounds (the compound of formula (I) and temozolomide) in one cell line. The compound of formula (I) was tested from 10 μM, 3-fold serial dilution. Temozolomide was tested from 100 μM, 3-fold serial dilution.
(§3) All the cell lines were maintained in culture conditions at 37° C. in an atmosphere with 5% CO2 in air. The tumor cells were routinely subcultured. The cells growing in an exponential growth phase were harvested and counted for plating.
(§4) Cells were counted by haemocytometer with Trypan blue staining. Next, 135 μL of cell suspension were plated into the assay plates according to the plate map and 135 μL of assay medium into the blank wells. The plates were incubated at 37° C., 5% CO2, 95% air and 100% relative humidity overnight.
(§5) 4.4.4 Compound Plate (10×) Preparation and Compound Treatment • 10× concentrate compound plate preparation: Add 198 μL of assay medium into each well of the V-bottom plate; then transfer 2 μL of the stock compound solution of each concentration from the stock plate. Add 2 μL of DMSO into the Blank and Control wells. Pipette up and down to mix well. This V-plate is designated as the 10× concentrate compound plate. • For day 0 plate, add 15 μL of the DMSO-medium into the Control wells. The final DMSO concentration was 0.1%. Then directly proceed to cell viability assay. • For assay plate, add 15 μL of the compound-medium of each well from the 10× concentrate compound plate into the cells in 96-well assay plate according to the plate map. Add 15 μL of the DMSO-medium into the Blank and Control wells. The final DMSO concentration was 0.1%. • Return the assay plate into incubator and incubate for 6 days.
(§6) The procedures were performed according to the Promega CellTiter-Glo Luminescent Cell Viability Assay Kit manual (Promega-G7573). • The CellTiter-Glo buffer was thawed and equilibrated to room temperature prior to use. • CellTiter-Glo Substrate was equilibrated to room temperature prior to use. • The entire liquid volume of CellTiter-Glo Buffer was transferred into the amber bottle containing CellTiter-Glo Substrate to reconstitute the lyophilized enzyme/substrate mixture. This forms the CellTiter-Glo Reagent. • The contents were mixed by gently vortexing to obtain a homogeneous solution. • The plate was equilibrated and its contents to room temperature for approximately 30 minutes. 75 μL (equal to the half volume of culture medium present in each well) CellTiter-Glo • Reagent was added in each well. Plates were covered with aluminum foil to protect from light. • The contents were mixed for 2 minutes on an orbital shaker to induce cell lysis. • The plate was incubated at room temperature for 20 minutes to stabilize luminescent signal. • Record luminescence on the 2104 EnVision plate reader.
(§7) Inhibition rate (IR) of the tested compounds was determined by the following formula: IR (%)=(1−(RLU compound−RLU day0)/(RLU control−RLU day0))*100%. The inhibitions of different dose of compound were calculated in Excel file, and then were used to plot inhibition curves and evaluate related parameters, such as Min (%), Max (%) and GI50. The data were interpreted by GraphPad Prism.

[2] = system: NCI-H460-luc; experiment: CellTiter-Glo anti-proliferation assay, NCI-H460-luc; type: cell-based
Protocol: as §1, §2, §3, §4, §5, §6, §7

[3] = system: H1975-luc; experiment: CellTiter-Glo anti-proliferation assay, H1975-luc; type: cell-based
Protocol: as §1, §2, §3, §4, §5, §6, §7

[4] = system: KM12-luc; experiment: CellTiter-Glo anti-proliferation assay, KM12-luc; type: cell-based
Protocol: as §1, §2, §3, §4, §5, §6, §7

[5] = system: MOLT-4-luc; experiment: CellTiter-Glo anti-proliferation assay, MOLT-4-luc; type: cell-based
Protocol: as §1, §2, §3, §4, §5, §6, §7

[6] = system: Nalm-6-luc; experiment: CellTiter-Glo anti-proliferation assay, Nalm-6-luc; type: cell-based
Protocol: as §1, §2, §3, §4, §5, §6, §7

[7] = system: PC-9-luc; experiment: CellTiter-Glo anti-proliferation assay, PC-9-luc; type: cell-based
Protocol: as §1, §2, §3, §4, §5, §6, §7

[8] = system: U-87MG-luc orthotopic intracranial tumors; experiment: U-87MG-luc glioblastoma orthotopic intracranial model, survival; type: in vivo, female BALB/c nude mice; conditions: 1 mg/kg PO*QD × 5/7 days (vehicle 37 days)
Protocol: U-87MG-luc cells were derived from U-87MG parental cells acquired from ATCC by stably introducing the gene that encodes the luciferase (luc) protein. The U-87MG-luc cells were cultured at 37° C. in an atmosphere of 5% CO2 in air. The tumor cells were routinely subcultured twice weekly. The cells growing in an exponential growth phase were harvested and counted for tumor inoculation.
3×10^5 U-87MG-luc tumor cells were micro-injected into the right lobe (caudate nucleus) of the brain of each mouse. A total of 94 mice were inoculated. Ten days after cell inoculation, bioluminescence were measured by Xenogen IVIS Lumina II machine, 70 mice were selected and randomly assigned into 7 groups based on bioluminescence intensity and bodyweight. The mice were dosed according to Table 25.

[9] = system: U-118MG xenograft tumors; experiment: U-118MG glioma subcutaneous xenograft model; type: in vivo, female CB17 SCID mice; conditions: QD; for Tumor volume (mean ± SEM): 1 mg/kg PO
Protocol: The tumor cells were routinely subcultured twice weekly. The cells growing in an exponential growth phase were harvested and counted for tumor inoculation.
The treatments was started on day 7 after tumor inoculation when the average tumor volume reached 150 mm^3. 60 mice were selected and assigned into 6 groups. The testing articles were administrated to the mice according to Table 1.
(§8) Tumor size was measured twice weekly in two dimensions using a caliper, and the volume was expressed in mm^3 using the formula: V=0.5 a×b^2 where a and b are the long and short diameters of the tumor, respectively. The tumor sizes are then used for the calculation of T/C and TGI values.
(§9) The T/C value (in percent) is an indication of antitumor effectiveness; T and C are the mean volume of the treated and control groups, respectively, on a given day.
(§10) TGI was calculated for each group using the formula: TGI (%)=[1−(Ti−T0)/(Vi−V0)]×100; Ti is the average tumor volume of a treatment group on PG-D28 T0 is the average tumor volume of the treatment group on the day of treatment start, Vi is the average tumor volume of the vehicle control group on the same day with Ti, and V0 is the average tumor volume of the vehicle group on the day of treatment start.
All Groups were taken down on PG-D28, tumor, plasma and brain samples were collected.
For statistical analysis for difference among groups 2-6 and group 1, a one-way ANOVA was performed. All the analysis were conducted using GraphPad Prism software. p<0.05 was considered to be statistically significant.

[10] = system: 22Rv1 tumors; experiment: 22Rv1 prostate tumor model (Example 3); type: in vivo, male Balb/c nude mice; conditions: for Tumor volume (mean ± SEM): 30 mg/kg PO QD
Protocol: The in vivo anti-tumor efficacy of the compound of formula (I) either alone or in combination with enzalutamide prostate tumor model on male Balb/c nude mice was evaluated. The cell line is derived from a xenograft that was serially propagated in mice after castration—induced regression and relapse of the parental, androgen-dependent CWR22 xenograft.
In the study, the compound of formula (I) was dosed orally (po) once daily (QD) and enzalutamide, when administered, was dosed orally once daily for 25 days, as shown in Table 8.
The 22Rv1 tumor cells were maintained in vitro in RPMI1640 medium supplemented with 10% heat inactivated fetal bovine serum at 37° C. in an atmosphere of 5% CO2 in air. The tumor cells were routinely subcultured twice weekly. The cells growing in an exponential growth phase were harvested and counted for tumor inoculation.
Each mouse was inoculated subcutaneously at the right flank with 22Rv1 tumor cells (5*10^6) with 50% Matrigel for tumor development. The treatments were started on day 7 after tumor inoculation when the average tumor volume reached 94 mm^3. A total of 48 mice were selected and assigned into 6 groups. The testing articles were administrated to the mice according to Table 8.
as §8, with “The major endpoint was to see if the tumor growth could be delayed or mice could be cured. Tumor” for “Tumor”
as §9
as §10, with “PG-Di,” for “PG-D28”
All groups were taken down on PG-D24 and PG-D25 when the average tumor size of vehicle group reached 2305 mm^3.
Summary statistics, including mean and the standard error of the mean (SEM), are provided for the tumor volume of each group at each time point. For comparison among groups, a one-way ANOVA was performed. All the analysis were conducted using GraphPad Prism software. p<0.05 was considered to be statistically significant.

[11] = system: tumor fragments from a mCRPC patient; experiment: Enzalutamide-resistant patient-derived xenograft prostate model (ST2347 PDX); type: in vivo, male Balb/c nude mice; conditions: 30 mg/kg oral QD
[12] = system: VCap prostate cancer; experiment: Non-castrated VCap prostate cancer model; type: in vivo, male CB17/Scid mice; conditions: Group 2: Enzalutamide 20 mg/kg p.o. QD * 26 days
Protocol: Compound (I), enzalutamide, and abiraterone were tested in non-castrated VCap prostate cancer model in male CB17/Scid mice.
All treatment groups reduced mean tumor volume.

[13] = inhibition rate, 6 days, Compound (I) from 10 μM, temozolomide from 100 μM, 3-fold, 9 points
[14] = 144 h, 6 days incubation, read-out: Absolute GI50
[15] = Group 6: Temozolomide 1 mg/kg PO, PG-D27
[16] = enzalutamide 30 mg/kg QD, PG-D24

Q: `Cn1nnc2c(C(N)=O)ncn2c1=O` [Temozolomide, reference compound] was tested. Which GI50 ([1]; ACHN-luc2, 144 h, 6 days incubation, read-out: Absolute GI50) did it give?
A: > 100 µM

Q: What about the “Max (%)” value [1, 13] of the same compound?
A: 20.0%

Q: And the “Min (%)” value [1, 13]?
A: 2.8%

Q: And the GI50 ([2]; NCI-H460-Luc, 144 h, 6 days incubation, read-out: Absolute GI50)?
A: > 100 µM

Q: And the “Max (%)” value [2, 13]?
A: 7.2%

Q: What about the “Min (%)” value [2, 13] of the same compound?
A: 4.8%

Q: And the GI50 [3, 14]?
A: > 100 µM

Q: And the “Max (%)” value [3, 13]?
A: 13.0%

Q: And the “Min (%)” value [3, 13]?
A: −0.3%

Q: What about the GI50 ([4]; KM12-Luc, 144 h, 6 days incubation, read-out: Absolute GI50) of the same compound?
A: > 100 µM

Q: What about the “Max (%)” value [4, 13] of the same compound?
A: 1.6%

Q: What about the “Min (%)” value [4, 13] of the same compound?
A: −12.1%

Q: What about the GI50 [5, 14] of the same compound?
A: > 100 µM

Q: What about the “Max (%)” value [5, 13] of the same compound?
A: 23.2%

Q: And the “Min (%)” value [5, 13]?
A: −2.2%

Q: And the GI50 [6, 14]?
A: > 100 µM

Q: What about the “Max (%)” value [6, 13] of the same compound?
A: 22.9%

Q: What about the “Min (%)” value [6, 13] of the same compound?
A: 6.5%

Q: What about the GI50 [7, 14] of the same compound?
A: > 100 µM

Q: What about the “Max (%)” value [7, 13] of the same compound?
A: 5.6%

Q: And the “Min (%)” value [7, 13]?
A: −13.1%

Q: What about the Median survival [8] of the same compound?
A: 44 days

Q: And the “Tumor volume (mean ± SEM)” value ([9]; day 0)?
A: 154 ± 12 mm^3

Q: And the “Tumor volume (mean ± SEM)” value ([9]; day 3)?
A: 239 ± 18 mm^3

Q: And the “Tumor volume (mean ± SEM)” value ([9]; day 7)?
A: 306 ± 17 mm^3

Q: And the “Tumor volume (mean ± SEM)” value ([9]; day 10)?
A: 346 ± 22 mm^3

Q: And the “Tumor volume (mean ± SEM)” value ([9]; day 14)?
A: 358 ± 22 mm^3

Q: And the “Tumor volume (mean ± SEM)” value ([9]; day 17)?
A: 395 ± 30 mm^3

Q: And the “Tumor volume (mean ± SEM)” value ([9]; day 21)?
A: 411 ± 31 mm^3

Q: And the “Tumor volume (mean ± SEM)” value ([9]; day 24)?
A: 423 ± 35 mm^3

Q: And the “Tumor volume (mean ± SEM)” value ([9]; day 28)?
A: 473 ± 44 mm^3

Q: What about the T/C [9, 15] of the same compound?
A: 74.94%

Q: And the TGI [9, 15]?
A: 33.24%

Q: And the “Tumor Size” value [9, 15]?
A: 473 ± 44 mm^3

Q: What does the source list for `CNC(=O)c1ccc(N2C(=S)N(c3ccc(C#N)c(C(F)(F)F)c3)C(=O)C2(C)C)cc1F` [Enzalutamide, reference compound]?
A: Tumor volume (mean ± SEM) ([10]; day 0): 94 ± 4 mm^3; Tumor volume (mean ± SEM) ([10]; day 3): 177 ± 13 mm^3; Tumor volume (mean ± SEM) ([10]; day 7): 345 ± 23 mm^3; Tumor volume (mean ± SEM) ([10]; day 10): 507 ± 53 mm^3; Tumor volume (mean ± SEM) ([10]; day 14): 825 ± 65 mm^3; Tumor volume (mean ± SEM) ([10]; day 17): 1115 ± 65 mm^3; Tumor volume (mean ± SEM) ([10]; day 21): 1531 ± 143 mm^3; Tumor volume (mean ± SEM) ([10]; day 24): 1814 ± 186 mm^3; T/C [10, 16]: 78.69%; TGI [10, 16]: 22.17%; Antitumor activity over the course of the treatment [11]: minimal effect; Tumor volume (mean ± SEM) ([12]; Day 0): 171.8 ± 6.1 mm^3; Tumor volume (mean ± SEM) ([12]; Day 4): 287.4 ± 17^ mm^3; Tumor volume (mean ± SEM) ([12]; Day 7): 352.2 ± 28.8 mm^3; Tumor volume (mean ± SEM) ([12]; Day 11): 542.8 ± 50.7 mm^3; Tumor volume (mean ± SEM) ([12]; Day 14): 662.7 ± 51.7 mm^3; Tumor volume (mean ± SEM) ([12]; Day 18): 761.9 ± 60.9 mm^3; Tumor volume (mean ± SEM) ([12]; Day 21): 891.2 ± 82.8 mm^3; Tumor volume (mean ± SEM) ([12]; Day 25): 1005.9 ± 71.4 mm^3
